Measurements taken from ChEMBL document CHEMBL4219047, “Optimization of peptide-based polyagonists for treatment of diabetes and obesity” (Bioorg Med Chem, 2018).
pEC50: −log10 of the molar value. Where a SMILES comes first, the peptide text is derived from it. Bridges are numbered along the chain shown (N, C = ends).

Assays:
Type in all cases: functional, cell-based
Glucagon receptor [1] = target: T1, Glucagon receptor (Homo sapiens, UniProt P47871); experiment: Agonist activity at human GCG receptor expressed in HEK293 cells assessed as increase in cAMP level after 5 hrs by CRE driven luciferase reporter gene assay relative to glucagon
T1 sequence (P47871 whole entry): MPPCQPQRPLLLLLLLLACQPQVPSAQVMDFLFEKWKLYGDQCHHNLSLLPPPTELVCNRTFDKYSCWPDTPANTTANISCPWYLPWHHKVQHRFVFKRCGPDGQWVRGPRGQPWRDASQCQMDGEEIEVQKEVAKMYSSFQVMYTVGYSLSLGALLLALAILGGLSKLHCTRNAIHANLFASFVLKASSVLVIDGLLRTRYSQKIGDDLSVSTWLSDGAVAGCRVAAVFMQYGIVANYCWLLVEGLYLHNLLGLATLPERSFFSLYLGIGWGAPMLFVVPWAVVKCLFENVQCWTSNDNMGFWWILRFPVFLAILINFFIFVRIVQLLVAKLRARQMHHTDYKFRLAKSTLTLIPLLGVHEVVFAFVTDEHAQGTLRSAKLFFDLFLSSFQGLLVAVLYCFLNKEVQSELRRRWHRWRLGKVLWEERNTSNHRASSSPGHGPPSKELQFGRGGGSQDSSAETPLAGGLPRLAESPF

[2] = target: T2, Glucagon-like peptide 1 receptor (Homo sapiens, UniProt P43220); experiment: Agonist activity at human GLP1 receptor expressed in HEK293 cells assessed as increase in cAMP level after 5 hrs by CRE driven luciferase reporter gene assay
T2 sequence (P43220 whole entry): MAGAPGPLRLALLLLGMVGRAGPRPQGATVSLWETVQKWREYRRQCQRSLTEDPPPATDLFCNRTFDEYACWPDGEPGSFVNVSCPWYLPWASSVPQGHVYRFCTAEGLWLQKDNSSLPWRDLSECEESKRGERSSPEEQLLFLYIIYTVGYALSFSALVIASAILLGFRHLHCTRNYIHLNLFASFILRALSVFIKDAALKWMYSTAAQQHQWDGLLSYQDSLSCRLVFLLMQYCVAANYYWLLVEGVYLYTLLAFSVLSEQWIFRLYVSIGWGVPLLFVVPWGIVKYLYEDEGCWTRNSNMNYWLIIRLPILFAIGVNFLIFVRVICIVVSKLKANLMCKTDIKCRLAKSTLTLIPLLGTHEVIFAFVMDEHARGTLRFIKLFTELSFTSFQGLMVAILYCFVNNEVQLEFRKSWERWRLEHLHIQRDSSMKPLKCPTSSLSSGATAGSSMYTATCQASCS

Glucagon receptor [3] = target: T1, Glucagon receptor; experiment: Agonist activity at human GCG receptor expressed in HEK293 cells assessed as increase in cAMP level after 5 hrs by CRE driven luciferase reporter gene assay
[4] = target: T2, Glucagon-like peptide 1 receptor; experiment: Agonist activity at human GLP1 receptor expressed in HEK293 cells assessed as increase in cAMP level after 5 hrs by CRE driven luciferase reporter gene assay relative to GLP1; parameters: concentration or dose not given beside the values
[5] = target: T3, Gastric inhibitory polypeptide receptor (Homo sapiens, UniProt P48546); experiment: Agonist activity at human GIP receptor expressed in HEK293 cells assessed as increase in cAMP level after 5 hrs by CRE driven luciferase reporter gene assay
T3 sequence (P48546 whole entry): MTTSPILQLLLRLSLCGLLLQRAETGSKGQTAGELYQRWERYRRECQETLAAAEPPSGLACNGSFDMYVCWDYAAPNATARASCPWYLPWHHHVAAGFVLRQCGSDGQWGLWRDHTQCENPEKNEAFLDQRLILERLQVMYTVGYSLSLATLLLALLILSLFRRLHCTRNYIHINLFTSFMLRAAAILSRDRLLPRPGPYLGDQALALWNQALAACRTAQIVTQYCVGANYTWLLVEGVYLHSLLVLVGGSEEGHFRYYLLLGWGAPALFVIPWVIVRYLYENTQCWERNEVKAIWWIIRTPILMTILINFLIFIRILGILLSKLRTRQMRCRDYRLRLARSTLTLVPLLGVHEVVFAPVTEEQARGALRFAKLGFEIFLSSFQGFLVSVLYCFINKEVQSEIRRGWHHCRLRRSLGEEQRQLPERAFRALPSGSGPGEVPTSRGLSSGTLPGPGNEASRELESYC

[6] = target: T4, Gastric inhibitory polypeptide receptor (Homo sapiens) (UniProt P48546); experiment: Agonist activity at human GIP receptor expressed in HEK293 cells assessed as increase in cAMP level after 5 hrs by CRE driven luciferase reporter gene assay relative to GIP; parameters: concentration or dose not given beside the values
T4 sequence (whole entry): T3 sequence (P48546 whole entry)

Row | SMILES | Activity (Glucagon receptor [1]) [%] | pEC50 [2] | pEC50 (Glucagon receptor [3]) | Activity [4] [%] | pEC50 [5] | Activity [6] [%]
1 | CCCCCCCCCCCCCCCC(=O)N[C@@H](CCC(=O)NCCCC[C@H](NC(=O)[C@H](CC(=O)O)NC(=O)[C@H](CO)NC(=O)[C@@H](NC(=O)[C@H](Cc1ccccc1)NC(=O)[C@@H](NC(=O)CNC(=O)[C@H](CCC(N)=O)NC(=O)CN(C)C(=O)[C@@H](N)Cc1cnc[nH]1)[C@@H](C)O)[C@@H](C)O)C(=O)N[C@@H](CO)C(=O)N[C@@H](CCCCN)C(=O)N[C@@H](Cc1ccc(O)cc1)C(=O)N[C@@H](CC(C)C)C(=O)N[C@@H](CC(=O)O)C(=O)N[C@@H](CCC(=O)O)C(=O)N[C@@H](CCCNC(=N)N)C(=O)N[C@@H](C)C(=O)N[C@@H](C)C(=O)N[C@@H](CCC(N)=O)C(=O)N[C@@H](CC(=O)O)C(=O)N[C@@H](Cc1ccccc1)C(=O)N[C@H](C(=O)N[C@@H](CCC(N)=O)C(=O)N[C@@H](Cc1c[nH]c2ccccc12)C(=O)N[C@@H](CC(C)C)C(=O)N[C@@H](CC(C)C)C(=O)N[C@@H](CC(=O)O)C(=O)N[C@H](C(N)=O)[C@@H](C)O)C(C)C)C(=O)O | 200 | 9.94 | 10.80 | 24 | 8.23 | 0
2 | CCCCCCCCCCCCCCCC(=O)N[C@@H](CCC(=O)NCCCC[C@H](NC(=O)[C@H](CC(=O)O)NC(=O)[C@H](CO)NC(=O)[C@@H](NC(=O)[C@H](Cc1ccccc1)NC(=O)[C@@H](NC(=O)CNC(=O)[C@H](CCC(N)=O)NC(=O)C(C)(C)NC(=O)[C@@H](N)Cc1cnc[nH]1)[C@@H](C)O)[C@@H](C)O)C(=O)N[C@@H](CO)C(=O)N[C@@H](CCCCN)C(=O)N[C@@H](Cc1ccc(O)cc1)C(=O)N[C@@H](CC(C)C)C(=O)N[C@@H](CC(=O)O)C(=O)N[C@@H](CCC(=O)O)C(=O)N[C@@H](CCC(N)=O)C(=O)N[C@@H](C)C(=O)N[C@@H](C)C(=O)N[C@@H](CCCCN)C(=O)N[C@@H](CCC(=O)O)C(=O)N[C@@H](Cc1ccccc1)C(=O)N[C@H](C(=O)N[C@@H](C)C(=O)N[C@@H](Cc1c[nH]c2ccccc12)C(=O)N[C@@H](CC(C)C)C(=O)N[C@@H](CC(C)C)C(=O)N[C@@H](CC(=O)O)C(=O)N[C@H](C(N)=O)[C@@H](C)O)[C@@H](C)CC)C(=O)O | 1070 | 11.52 | 11.52 | 933 | 8.45 | 1
3 | CC[C@H](C)[C@H](NC(=O)[C@H](Cc1ccccc1)NC(=O)[C@H](CCC(=O)O)NC(=O)[C@H](CCCCN)NC(=O)[C@H](C)NC(=O)[C@H](C)NC(=O)[C@H](CCC(N)=O)NC(=O)[C@H](CCC(=O)O)NC(=O)[C@H](CC(=O)O)NC(=O)[C@H](CC(C)C)NC(=O)[C@H](Cc1ccc(O)cc1)NC(=O)[C@H](CCCCN)NC(=O)[C@H](CO)NC(=O)[C@H](Cc1ccc(O)cc1)NC(=O)[C@H](CC(=O)O)NC(=O)[C@H](CO)NC(=O)[C@@H](NC(=O)[C@H](Cc1ccccc1)NC(=O)[C@@H](NC(=O)CNC(=O)[C@H](CCC(=O)O)NC(=O)[C@H](CO)NC(=O)[C@@H](N)Cc1cnc[nH]1)[C@@H](C)O)[C@@H](C)O)C(=O)N[C@@H](C)C(=O)N[C@@H](Cc1c[nH]c2ccccc12)C(=O)N[C@@H](CC(C)C)C(=O)N[C@@H](CCSC)C(=O)N[C@@H](CC(N)=O)C(=O)N[C@H](C(N)=O)[C@@H](C)O (H-HSEGTFTSDYSKYLDEQAAKEFIAWLMNT-NH2) | 1 | 10.52 | 8.28 | 93 | 9.06 | 2
4 | CC[C@H](C)[C@H](NC(=O)[C@H](Cc1ccccc1)NC(=O)[C@H](CCC(=O)O)NC(=O)[C@H](CCCCN)NC(=O)[C@H](C)NC(=O)[C@H](C)NC(=O)[C@H](CCC(N)=O)NC(=O)[C@H](CCC(=O)O)NC(=O)[C@H](CC(=O)O)NC(=O)[C@H](CC(C)C)NC(=O)[C@H](Cc1ccc(O)cc1)NC(=O)[C@H](CCCCN)NC(=O)[C@H](CO)NC(=O)[C@H](Cc1ccc(O)cc1)NC(=O)[C@H](CC(=O)O)NC(=O)[C@H](CO)NC(=O)[C@@H](NC(=O)[C@H](Cc1ccccc1)NC(=O)[C@@H](NC(=O)CNC(=O)[C@H](CCC(N)=O)NC(=O)[C@H](CO)NC(=O)[C@@H](N)Cc1cnc[nH]1)[C@@H](C)O)[C@@H](C)O)C(=O)N[C@@H](C)C(=O)N[C@@H](Cc1c[nH]c2ccccc12)C(=O)N[C@@H](CC(C)C)C(=O)N[C@@H](CCSC)C(=O)N[C@@H](CC(N)=O)C(=O)N[C@H](C(N)=O)[C@@H](C)O (H-HSQGTFTSDYSKYLDEQAAKEFIAWLMNT-NH2) | 103 | 10.66 | 10.51 | 127 | 8.20 | 0
5 | CC[C@H](C)[C@H](NC(=O)[C@H](Cc1ccccc1)NC(=O)[C@H](CCC(=O)O)NC(=O)[C@@H]1CCCCNC(=O)CC[C@H](NC(=O)[C@H](CC(=O)O)NC(=O)[C@H](CC(C)C)NC(=O)[C@H](Cc2ccc(O)cc2)NC(=O)[C@H](CCCCN)NC(=O)[C@H](CO)NC(=O)[C@H](Cc2ccc(O)cc2)NC(=O)[C@H](CC(=O)O)NC(=O)[C@H](CO)NC(=O)[C@@H](NC(=O)[C@H](Cc2ccccc2)NC(=O)[C@@H](NC(=O)CNC(=O)[C@H](CCC(N)=O)NC(=O)[C@H](CO)NC(=O)[C@@H](N)Cc2cnc[nH]2)[C@@H](C)O)[C@@H](C)O)C(=O)N[C@@H](CCC(N)=O)C(=O)N[C@@H](C)C(=O)N[C@@H](C)C(=O)N1)C(=O)N[C@@H](C)C(=O)N[C@@H](Cc1c[nH]c2ccccc12)C(=O)N[C@@H](CC(C)C)C(=O)N[C@@H](CCSC)C(=O)N[C@@H](CC(N)=O)C(=O)N[C@H](C(N)=O)[C@@H](C)O (H-HSQGTFTSDYSKYLDEQAAKEFIAWLMNT-NH2; lactam 16-20) | 104 | 10.70 | 10.52 | 126 | 8.20 | 0
6 | CCCCCCCCCCCCCCCC(=O)N[C@@H](CCC(=O)NCCCC[C@H](NC(=O)[C@H](CC(=O)O)NC(=O)[C@H](CO)NC(=O)[C@@H](NC(=O)[C@H](Cc1ccccc1)NC(=O)[C@@H](NC(=O)CNC(=O)[C@H](CCC(N)=O)NC(=O)CNC(=O)[C@@H](N)Cc1cnc[nH]1)[C@@H](C)O)[C@@H](C)O)C(=O)N[C@@H](CO)C(=O)N[C@@H](CCCCN)C(=O)N[C@@H](Cc1ccc(O)cc1)C(=O)N[C@@H](CC(C)C)C(=O)N[C@@H](CC(=O)O)C(=O)N[C@@H](CCC(=O)O)C(=O)N[C@@H](CCCNC(=N)N)C(=O)N[C@@H](C)C(=O)N[C@@H](C)C(=O)N[C@@H](CCC(N)=O)C(=O)N[C@@H](CC(=O)O)C(=O)N[C@@H](Cc1ccccc1)C(=O)N[C@H](C(=O)N[C@@H](CCC(N)=O)C(=O)N[C@@H](Cc1c[nH]c2ccccc12)C(=O)N[C@@H](CC(C)C)C(=O)N[C@@H](CC(C)C)C(=O)N[C@@H](CC(=O)O)C(=O)N[C@H](C(N)=O)[C@@H](C)O)C(C)C)C(=O)O | 640 | 10.03 | 11.30 | 30 | 8.96 | 2
